According to US11117888B2, “Irreversible inhibitors of pyruvate kinase M2 and the use thereof” (China Medical University, priority 2020, dated 2021):

Target: T1, recombinant PKM1 (Homo sapiens, UniProt P14618)
T1 construct: purchased Sigma-Aldrich SRP0415
Assay: Recombinant PKM1 kinase activity assay
Type: biochemical
Conditions: after 20 min of exposure
Experimental: As this cell-based kinase assay could not rule out the involvement of PKM1, we examined the abilities of compound 1 to inhibit the kinase activity of recombinant PKM2 (SAE0021, Sigma-Aldrich) versus recombinant PKM1 (SRP0415, Sigma-Aldrich) using a commercial PKM assay kit. […] In brief, PC-9 cells were exposed to different concentrations of compound 2 in the presence of compound 1 (1 μM) for 1 hour, lysed, and the cell lysates were treated with biotin-azide, followed by streptavidin bead pulldown under the aforementioned conditions. […] The antigen of compound 1 was prepared by coupling this small molecule with cysteine residues of ovalbumin, which was then used for immunization in guinea pigs.
Pyruvate kinase activity assays. PC-9 cells were seeded into 6 cm dishes at a concentration of 5×10^5 cells/mL. After 24 hours, cells were treated with 0.25 μM compound 1 or DMSO for 6 hours. The pyruvate kinase activity of compound 1-treated PC-9 and vehicle control cells was measured by using a commercial colorimetric assay kit from BioVision (Milpitas, Calif., USA) according to the manufacturer's protocol. In addition, to verify the specificity of compound 1 toward PKM2 versus PKM1, the inhibition of the kinase activity of recombinant PKM1 (SRP0415, Sigma-Aldrich) and recombinant PKM2 (SAE0021, Sigma-Aldrich) by compound 1 was conducted using the aforementioned assay kit.

T1 sequence (P14618 1-531 isoform P14618-2): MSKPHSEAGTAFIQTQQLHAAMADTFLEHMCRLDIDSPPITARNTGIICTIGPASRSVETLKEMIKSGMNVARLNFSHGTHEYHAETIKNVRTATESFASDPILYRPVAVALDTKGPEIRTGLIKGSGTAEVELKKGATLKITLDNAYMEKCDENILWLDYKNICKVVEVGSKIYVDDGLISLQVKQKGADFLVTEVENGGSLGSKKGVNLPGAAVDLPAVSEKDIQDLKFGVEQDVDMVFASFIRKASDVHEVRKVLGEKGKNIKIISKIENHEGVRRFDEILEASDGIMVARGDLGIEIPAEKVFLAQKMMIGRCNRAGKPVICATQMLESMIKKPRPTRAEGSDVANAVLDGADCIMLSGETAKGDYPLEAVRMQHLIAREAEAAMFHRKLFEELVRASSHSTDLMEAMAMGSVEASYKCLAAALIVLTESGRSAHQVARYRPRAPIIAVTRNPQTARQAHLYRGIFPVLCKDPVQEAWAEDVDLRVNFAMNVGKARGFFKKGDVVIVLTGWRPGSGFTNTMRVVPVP

Which “inhibition of kinase activity of recombinant PKM1” value does the source give for `C#CC(=O)Nc1ccc(-n2nc(CCC(=O)NC)cc2-c2ccc(-c3ccc(C(F)(F)F)cc3)cc2)cc1` [compound 1, N-(4-(3-(3-(Methylamino)-3-oxopropyl)-5-(4′-(trifluoromethyl)-[1,1′-biphenyl]-4-yl)-1H-pyrazol-1-yl)phenyl)propiolamide] here?
Its value is “no appreciable inhibition”.
